Experimental findings from US4146615A, “Chrysanthellum plant extract” (Laboratoires Sarget, priority 1977, dated 1979) are described below.

Read-outs that look alike come from different tables or passages of the source.

The subject of data set [1] is edema of the rat ear induced by croton oil. Put plainly: Local anti-inflammatory action, edema of the rat ear induced by croton oil (Le Douarec). As to conditions: topical. It counts as in vivo. As for the experimental part: This was determined by the technique of edema of the rat ear induced by croton oil according to the method of Le Douarec. The irritant mixture was prepared from two solutions: solution A which contained 10 ml of pyridine, 2.5 ml of water and 12.5 ml of ethyl acetate and in which the test sample was dissolved; solution B, which contained 1 ml of croton oil and 24 ml of ethyl acetate. The two solutions A and B were mixed together before use. Edema was induced by swabbing the ear with a cotton wad moistened with the irritant mixture (about 1 ml of mixture per rat).

Data set [2] deals with male mice of the Swiss EOPS strain. Put plainly: Analgesic activity, hot plate test (thermal stimulus). It is filed as in vivo, mouse. Conditions: 56° C., reaction time ≥150% of reference time. The method, then:
Experiments were performed on male mice of the Swiss EOPS strain and two stress-producing stimuli were used: the P.B.Q. test (chemical stimulus) and the hot plate test (thermal stimulus). […] The doses are expressed in mg/kg of animal weight.

Data set [3] has the same test system. Put plainly: Analgesic activity, P.B.Q. test (chemical stimulus). Conditions: 10 minutes before P.B.Q., range in parentheses. It is filed as in vivo, mouse. As for the experimental part:
Experiments were performed on male mice of the Swiss EOPS strain and two stress-producing stimuli were used: the P.B.Q. test (chemical stimulus) and the hot plate test (thermal stimulus).
An aqueous alcoholic solution of 0.02% phenyl p-benzoquinone (P.B.Q.) was administered i.p. to the animals; at the end of 5 minutes this induced abdominal contractions and extension of the mice's hind paws.
The doses are expressed in mg/kg of animal weight.

For data set [4], the system named is capillary permeability. It counts as in vivo, rat. The method, then: The capillary permeability was determined by the method of […]., and […]., Arch. Inter. Physiol. […] The products were administered i.p. for capillary permeability, the ED 50 as well as the regression analysis equation expressing the effect on the capillary permeability as a function of the dose expressed in mg/kg.

For data set [5], the system named is capillary resistance. Put plainly: Capillaroprotector effects, capillary resistance. It is filed as in vivo, rat. As for the experimental part: The capillary resistance was determined by a variant of the method of Charlier R., Hosslet A., and Colot M., Arch. Inter. Physiol. Biochem., 71, 1-45 (1963) in Sprague Dowley EOPS rats. The products were administered i.p.

Data set [6] has as its system constraint ulcer. In words: Anti-ulcer activity, constraint ulcer test (Bonfils). It counts as in vivo, rat. As to conditions: 50 mg/kg PO. As for the experimental part: The anti-ulcer activity was determined in female EOPS Wistar rats in the constraint ulcer test by the technique of Bonfils.
After 24 hours without food the rats, lightly anesthetized with ether, were immobilized in pliable metal-lattice corselets. The paws were tied together in pairs. The rats were suspended in their cages so that they could not touch any point of support. Just before anesthesia the test samples were administered PO in suspension in gum julep in a volume of 0.5 cc/100g. The animals were left constrained for 24 hours and then killed with ether. The stomachs were removed and cut along the greatest curvature. They were stretched out on cork slabs covered with glazed paper to facilitate examination and photographing. A scale of 0 to 4 was used for the number and dimension of ulcerations (0 for no ulceration, 4 for more than 4 ulcers or a perforation).

For data set [7], the system named is male standard Wistar rats. In words: Intoxication by slow IV perfusion in the anesthetized rat. As for the experimental part: The carotid pressure, the heart rate, the respiration and the electrocardiogram were recorded on lead DII. […] The products were administered in solution in physiological serum. The solutions were neutralized with bicarbonate.
Data set [8] has as its system EOPS mouse. Conditions: Mice. The method, then:
Acute toxicity was determined in the EOPS mouse, the standard Wistar rat and the EOPS Wistar rat for several methods of administration. The products were administered orally in suspension in gum julep, and i.p. and i.v. in a physiological solution neutralized with NaOH.
In all cases the doses are expressed in mg per kg of animal weight.

Data set [9] deals with Edema from Carrageenan. In words: Anti-inflammatory activity, edema test with carrageenan. It is filed as in vivo, rat. As to conditions: i.p. As for the experimental part:
This effect was determined in the edema test with carrageenan in male EOPS Wistar rats. A volume of 0.1 ml of a suspension of 0.5% carrageenan in physiologic serum was injected into the muscle bundle of the metatarsal region of the animal's hind paws. The test sample was administered i.p. in neutralized physiologic solution simultaneously with the carrageenan. The edema was measured by plethysmometry 2, 3 and 6 hours after the administration of carrageenan.

Data set [10] concerns EOPS Wistar rat. Put plainly: Acute toxicity in the EOPS Wistar rat (Litchfield and Wilcoxon). Conditions: EOPS Wistar rats, IP. It counts as in vivo.

For the molecule `CC(=O)Oc1ccccc1C(=O)O` [Aspirin], the “% of Activity (inhibition of the edema)” value in data set [1] (25 mg/ml of mixture) stood at 27%; in [1] (50 mg/ml of mixture), 65%.

Consider `CCCCC1C(=O)N(c2ccccc2)N(c2ccccc2)C1=O` [Phenylbutazone], for which the ED50 in data set [2] (Mus musculus, ip, read-out: Hot Plate Test AD 50) was 125 mg/kg; in data set [3] (Mus musculus, ip, read-out: P.B.Q. Test ED 50), 14 mg/kg.

For Sodium escinate, the “Capillary Permeability ED 50” value in [4] (i.p., standard Wistar rat, range in parentheses) is on record as 12 (10-15) mg/kg. In data set [4] (rat, not told), the “Capillary permeability regression equation, constant term” value came out at 159 and the “Capillary permeability regression equation, slope (coefficient of X)” value is -6.50. Besides, in [5] (dose 5 mg/kg i.p.), the “Capillary Resistance activity” value is recorded as 26 ± 15 ucmHg/hour and the “Capillary Resistance, % of animals with activity ≥25” value is recorded as 60%. For the same molecule, in [5] (dose 10 mg/kg i.p.), the “Capillary Resistance activity” value turned out to be 78 ± 24 ucmHg/hour and the “Capillary Resistance, % of animals with activity ≥25” value is listed as 100%.

On to β-aescine, for which the “% of Anti-Ulcer Activity” value in [6] stood at 13%. Besides, in data set [7] (1 mg/kg/min), the arterial pressure result was “a slight hypotension was observed at the beginning of the perfusion; the arterial pressure next increased, then abruptly dropped to end rapidly in death”. In addition, in data set [7] (up to 0.1 mg/kg/min), the “arterial pressure and heart and respiratory rates” value is reported as “tended to increase”. The “Hot Plate Test AD 50” value in data set [2] (i.p.) is reported as 4.5 mg/kg. For the same molecule, the “MTD (maximum tolerated dose)” value in data set [8] (IP) was 2.5 mg per kg; in data set [8] (IV), less than 1.25 mg per kg; in data set [10], less than 6.25 mg per kg. Further, the “Edema from Carrageenan ED 50” value in data set [9] (2 hours after carrageenan) came to 6.5 mg/kg; in data set [9] (3 hours after carrageenan) it was 8.5 mg/kg; in data set [9] (6 hours after carrageenan) it was 7.5 mg/kg. The “P.B.Q. Test ED 50” value in data set [3] (i.p.) is 2.7 (1.7-7.5) mg/kg.
